Test [1] concerns the target T1, US28 (Human cytomegalovirus, UniProt P69332). Description: reversibility of binding to US28, competition assay with fractalkine. The following applies: pre-incubated with US28 expressing cells at 0-10 μg/mL, removed by competition with fractalkine (FIG. 3). The arrangement: a mouse cell line stably expressing transfected US28 cDNA under the control of a CMV promoter; expressed in transfected cells; species or system human cytomegalovirus (CMV). How it is done: FIG. 3 illustrates the reversibility of IBZM binding to US28. In this figure, IBZM is pre-incubated with US28 expressing cells (at concentrations of 0-10 μg/mL) and removed by competition with fractalkine.
In this assay, IBZM is pre-incubated with US28 expressing cells (at concentrations of 0-10 μg/mL) and removed by competition with fractalkine (see FIG. 3).

Test [2] relates to chemokine receptors. Description: binding specificity among chemokine receptors tested. The following applies: all chemokine receptors tested.
Test [3] addresses T1, US28. Description: cytoplasmic calcium mobilization in US28-293 cells. The class given is cell-based, human cytomegalovirus (CMV). The following applies: compound added before fractalkine (FIG. 2). The arrangement: expressed in transfected cells; host or cells: human 293 cells (US28-293 cells). The method, then:
For each test, 1×10^6 cells were incubated at 37° C. in the cuvette of a PTI spectrometer, and the ratio of 410/490 nm emission plotted over time (typically 2-3 minutes), with compounds added at 5 seconds, followed by fractalkine at 60 seconds. […] Compounds which inhibited fractalkine binding were tested in this assay for the effects on Ca^2+ in this system.
S-(−)-IBZM (from the RBI division of Sigma Chemical Co., St. Louis, Mo., USA, Catalog No. I-139) was evaluated in the assays described in Examples 1 and 2. The IC50 value was 0.6 μM.
In general terms: A change in cytosolic calcium serves as a functional read-out for many receptors and channels.

Test [4] has as its target T1, US28. Description: inhibition of 125I-fractalkine binding to US28 expressing cells. The arrangement: a mouse cell line stably expressing transfected US28 cDNA under the control of a CMV promoter; expressed in transfected cells; species or system human cytomegalovirus (CMV). The method, then: The US28 expressing cells used in most assays consist of a mouse cell line stably expressing transfected US28 cDNA under the control of a CMV promoter. These cells were cultured in IMDM-5% FBS, and harvested when the concentration was between 0.5-1.0×10^6 cells/mL. Some assays were performed with adherent human 293 cells (US28-293 cells) or membranes. The cells were centrifuged and resuspended in assay buffer (20 mM HEPES, 140 mM NaCl, 1 mM CaCl2, 5 mM MgCl2, and with 0.2% bovine serum albumin) to a concentration of 5.6×10^6 cells/mL. Using the Multi-Probe automated system, set up with 8 assay plates at a time, first 0.09 mL of cells was added to the assay plates containing the compounds. The final concentration of the compounds was 5 μg/mL each (1 μg/mL Comgenex). Then 0.09 mL of ^125I-fractalkine diluted in assay buffer (final concentration ˜[…], with ˜30,000 cpm per well) was added, the plates sealed and incubated for approximately 3 hours at 4 degrees C. on a shaker platform. The assay plates were harvested using Packard filter plates, pre-soaked in PEI solution, on the vacuum harvest apparatus. Scintillation fluid (35 μL) was added to all wells, the plates were sealed and counted in a Top Count scintillation counter. […]
S-(−)-IBZM (from the RBI division of Sigma Chemical Co., St. Louis, Mo., USA, Catalog No. I-139) was evaluated in the assays described in Examples 1 and 2. […]

pIC50: −log10 of the molar value.

T1 sequence (P69332 whole entry): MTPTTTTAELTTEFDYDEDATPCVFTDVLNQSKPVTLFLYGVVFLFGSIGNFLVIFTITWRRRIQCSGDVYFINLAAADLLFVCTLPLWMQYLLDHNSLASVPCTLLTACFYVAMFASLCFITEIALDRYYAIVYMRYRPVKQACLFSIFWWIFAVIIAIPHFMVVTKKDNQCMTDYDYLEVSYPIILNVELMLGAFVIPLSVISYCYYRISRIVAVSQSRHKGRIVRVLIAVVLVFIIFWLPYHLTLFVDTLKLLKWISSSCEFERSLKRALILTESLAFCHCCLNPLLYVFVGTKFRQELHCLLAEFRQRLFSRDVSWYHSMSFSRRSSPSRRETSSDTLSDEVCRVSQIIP

Take `CCN1CCC[C@H]1CNC(=O)c1c(OC)ccc(I)c1O` [IBZM, S(−)-3-Iodo-2-hydroxy-6-methoxy-N[(1-ethyl-2-pyrrolidinyl)methyl]benzamide]: the “reversibility of binding to US28” value in test [1] is reported as “reversible”. For the same compound, the “specificity of binding among chemokine receptors” value in test [2] is listed as “bind specifically to US28”. For the same compound, the “mode of action in calcium mobilization” value in test [3] is on record as “competitive agonist”. Besides, the negative logarithm of the IC50 (pIC50) in test [4] is 6.22.

The pIC50 is −log10 of the IC50, conventionally taken in molar units. Read a low pIC50 as a high IC50.

(Values after US20020193374A1, “Reagents and methods for the diagnosis of CMV dissemination” (priority 2000, published 2002).)
